Drawing on PubChem BioAssay (NCI), this text covers TGI for ten compounds.

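These data come from cells grown in 96-well plates and exposed to compound for 48 hours at five concentrations. At the TGI there is no net growth.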

Holding throughout (assay): NCI tumour cell line growth inhibition, 48 h
The test system of assay [1] is ACHN renal.
In assay [2] the test system is CAKI-1 renal.
Assay [3] has as its system HCT-15 colon.
Assay [4] concerns LOX IMVI melanoma.
Assay [5] concerns MDA-MB-231 breast.
Assay [6] concerns OVCAR-3 ovarian.
The test system of assay [7] is OVCAR-5 ovarian.
The subject of assay [8] is SF-539 CNS.
For assay [9], the system named is SK-MEL-2 melanoma.
Assay [10] relates to SK-MEL-5 melanoma.
The subject of assay [11] is UACC-257 melanoma.

For `CCC1CN2CCc3c([nH]c4ccccc34)[C@@](C(=O)OC)(c3cc4c(cc3OC)N(C)C3C(O)(C(=O)OC)C(C(=O)OC)C5(CC)C=CCN6CCC43C65)C[C@@H](C2)[C@@H]1C(C)(C)C` (stereo not given in full), the TGI was over 10 µM in assay [1]; over 10 µM in assay [2]; 2.82 µM in assay [3]; 2 µM in assay [4]; 3.42 µM in [5]; over 2.85 µM in [6]. Moreover, the TGI in assay [7] was over 10 µM; in assay [8], 2.31 µM; in assay [9] it was over 4.02 µM; in assay [10], 1.25 µM; in assay [11], over 7.97 µM.

`C=CCN1C(=O)CC(=O)N(NC2=NNC3(C(=O)N2)c2ccccc2-c2ccccc23)C1=S`: the TGI in assay [1], in assay [2], in assay [3], in assay [4], in [5] and in [6] was over 100 µM each time. In addition, the TGI in [7] was over 100 µM; in assay [8], over 100 µM; in assay [9] it was 74.5 µM; in assay [10] it was over 100 µM; in assay [11], over 100 µM.

On to `CN(/N=C\c1ccc2ccccc2c1)C1=NCCCN1`, for which the TGI in [1] was found to be 35.9 µM; in assay [2], 22.7 µM; in assay [3] it was 74.4 µM; in assay [4] it was 21.6 µM; in assay [5], 34.5 µM; in assay [6], 54.1 µM. Further, the TGI in assay [7] is over 100 µM; in assay [8], 40.3 µM; in [9], 35 µM; in assay [10], 24.6 µM; in assay [11], 23.6 µM.

Consider `CC(=O)C(C(C)=O)[C@H]1OC(C)(C)O[C@H]1[C@H]1COC(C)(C)O1`, for which the TGI in [1] was over 100 µM; in assay [2], over 100 µM; in assay [3], over 100 µM; in assay [4] it was over 100 µM; in assay [5], 89 µM; in [6], over 100 µM. Further, the TGI was over 100 µM in [7]; 41.5 µM in [8]; 58.8 µM in assay [9]; over 100 µM in assay [10]; over 100 µM in assay [11].

Regarding `Cc1cc(C)n2c(nc3ccccc32)c1C#N`, the TGI in assay [1], in assay [2], in assay [3], in [4], in assay [5] and in assay [6] was over 100 µM in each case. In addition, the TGI in [7], in [8], in [9], in assay [10] and in assay [11] was over 100 µM each time.

Regarding `CCOC(=O)c1cn(CC)c2ccc3c(c2c1=O)S(=O)(=O)C=C3`, the TGI in [1], in assay [2], in [3], in [4], in [5] and in assay [6] was over 100 µM throughout. The TGI in assay [7], in [8], in [9], in [10] and in assay [11] was over 100 µM throughout.

On to `COc1cc2c(cc1OC)C(=O)/C(=C/c1ccc(N(C)C)cc1)CC2`, for which the TGI in [1], in assay [2], in assay [3], in assay [4], in assay [5] and in [6] was over 10 µM in each case. Further, the TGI in [7], in assay [8], in assay [9], in assay [10] and in [11] was over 10 µM throughout.

As for `c1cc2c(cc1[C@@H]1OC[C@@H]3[C@H]1CO[C@H]3c1ccc3c(c1)OCO3)OCO2`, the TGI in [1], in [2], in assay [3], in [4], in assay [5] and in assay [6] was over 100 µM throughout. Also, the TGI was over 100 µM in assay [7]; over 100 µM in assay [8]; over 100 µM in [9]; 33.6 µM in assay [10]; 80.7 µM in assay [11].

As for `Cc1ccc(NCCN(C)C)c2c(=O)c3cc(O)ccc3sc12`, the TGI in assay [1] turned out to be 7.31 µM; in assay [2], 11.6 µM; in assay [3], 9.99 µM; in [4], 7.84 µM; in assay [5] it was 4.6 µM; in [6] it was 18.6 µM. Further, the TGI in assay [7] was 29.6 µM; in assay [8] it was 10.4 µM; in [9], 35.7 µM; in assay [10], 9.88 µM; in [11], 20.7 µM.

`O=C1c2ccccc2C(=O)c2sc(Nc3cc(Cl)ccc3Cl)nc21`: the TGI is 19 µM in assay [1]; 11.7 µM in assay [2]; 9.48 µM in [3]; 5.78 µM in assay [4]; 5.56 µM in assay [5]; 4.07 µM in assay [6]. For the same compound, the TGI in assay [7] amounted to 45.6 µM; in assay [8], 13.4 µM; in [9], 31.6 µM; in [10], 2.98 µM; in assay [11], 7.76 µM.
